Measured values published in PubChem BioAssay AID1626 (SRMLSC, 2009).

System: M. tuberculosis H37Rv growth inhibition
Test: M. tuberculosis H37Rv growth inhibitors, H37Rv strain (AID 1626)
Conditions: for IC90: measured here: IC90 against H37Rv; for CC50: measured here: Vero cell cytotoxicity

Row | SMILES | IC50 [µM] | IC90 [µM] | CC50 [µM]
1 | CCOC(=O)COc1ccc(S(=O)(=O)NCCC2=CCCCC2)cc1 | 12.1 | 20.8 | –
2 | COc1ccc(-c2nn(-c3ccccc3)cc2C(=O)Nc2nccs2)cc1 | – | > 100 | > 40
3 | COC(=O)CCn1c(C)cc(C(=O)COc2ccccc2C(N)=O)c1C | 1.57 | 31.1 | > 40
4 | CCOC(=O)COc1ccc2c(=O)c(-c3ccccc3)coc2c1 | < 0.195 | 0.755 | –
5 | O=C(Nc1ccc(CN2CCOCC2)cc1)c1ccc(-c2ccc(Br)cc2)o1 | 7.09 | 13.2 | 32
6 | CCCC(=O)N1CCN(c2ccc(NC(=O)c3ccc([N+](=O)[O-])o3)cc2)CC1 | 1 | 2.22 | 3.1
7 | CCOC(=O)c1cc(C)nc(Sc2ccc(C)cc2)c1C#N | 12.7 | > 100 | > 40
8 | O=S1(=O)C=C(Sc2nc3cc(Cl)ccc3o2)c2ccccc21 | 2.9 | 3.18 | 16.1
9 | CN(C)CCNC=C(C(=O)Nc1ccc(Cl)cc1Cl)C(=O)Nc1ccc(Cl)cc1Cl | 2.45 | 3.44 | 18.1
10 | COc1ccc(C(=O)CSc2nc(-c3ccccn3)nc(C)c2Cl)cc1 | 6.11 | 6.84 | > 40
11 | COc1ccc(-c2cc(C(=O)Nc3nc4ccccc4s3)c3ccccc3n2)cc1OC | 4.02 | > 100 | –
12 | Cc1ccc(-c2noc(-c3cc4ccccc4oc3=O)n2)cc1 | 1.5 | > 100 | –
13 | CN1CCN(c2nc(-c3ccccc3)nc3c2oc2ccccc23)CC1 | 5.55 | 10.5 | 30
14 | O=C(/C=C/c1ccco1)c1ccc(NC(=O)C23CC4CC(CC(C4)C2)C3)cc1 | < 0.195 | > 100 | –
15 | CCOC(=O)CSc1nc(N)c(C#N)c(-c2ccc(OCC)cc2)c1C#N | 0.472 | 1.32 | –
16 | Oc1cccc2ccc(/C=C/c3c(F)cccc3Cl)nc12 | 1.37 | 6.64 | > 40
17 | CC(=O)c1ccc(OCC(=O)Nc2ccc3c(c2)CCC3)cc1 | 12.6 | > 100 | > 40
18 | CCN(Cc1ccccc1)c1ccc(/C=N/N=C(N)N)cc1 | 5.5 | 6.21 | 8.71
19 | COc1cc2c(cc1NCc1ccccn1)oc1ccccc12 | 3.09 | 21.4 | –
20 | CN1CCN(C2=Cc3ccccc3Sc3cc(F)c(Cl)cc32)CC1 | 11.6 | 13.2 | 36.4
21 | COc1ccc(NCC(=O)Nc2ccc(C#N)cc2)cc1Cl | 8.28 | > 100 | > 40

Row | SMILES | IC50 [µM] | IC90 [µM] | CC50 [µM]
22 | Cc1cc(=O)[nH]c(-n2nc(C)cc2C)n1 | 1.42 | 2.43 | > 40
23 | COc1cc(/C=N/NC(=Nc2ccc(C)cc2)c2nc3ccccc3s2)ccc1O | – | > 100 | > 40
24 | CCN1CCN(Cc2ccc(NC(=O)c3cc(NC(=O)c4cc(-c5ccc(OC)cc5)n[nH]4)cc(OC)c3)cc2C(F)(F)F)CC1 | 4.41 | 5.93 | 6.28
25 | Nc1c(C(=O)NC2CCCCC2)nsc1C(=O)OCC(=O)NC1CCCCC1 | 2.04 | > 100 | > 40
26 | CNc1nc(SC)nc2ccsc12 | 5.66 | 15.2 | –
27 | Cc1cc(NC(=O)C2CCCCC2)n(-c2nc3ccccc3[nH]2)n1 | 2.54 | 5.5 | 38
28 | O=[N+]([O-])c1cc(S(=O)(=O)C(F)(F)F)ccc1Sc1nc2ccccc2s1 | 0.699 | 0.781 | 12.6
29 | CCOC(=O)c1ccc(NC(=O)CCc2nc(-c3ccc(C)cc3)no2)cc1 | 1.36 | 12.4 | > 40
30 | O=C(/C=C/c1ccccc1F)c1cccc([N+](=O)[O-])c1 | 6.24 | 6.73 | > 40
31 | O=C(Nc1nnc(-c2ccco2)o1)c1cccc2ccccc12 | 2.34 | 6.25 | 39.4
32 | CCOC(=O)CNc1ccc(C(=O)OCC)cc1[N+](=O)[O-] | 3.23 | > 100 | –
33 | Cc1cccc(NC(=O)c2nc[nH]c2C(=O)N[C@@H](C)C(=O)OCc2ccccc2)c1 | 59.9 | > 100 | –
34 | O=C(c1nnsc1S(=O)c1ccc(Cl)cc1)N1CCOCC1 (stereo not drawn) | 8.91 | 10.8 | 14.4
35 | O=C(CSCC(=O)N1CCCCC1)Nc1nc(-c2ccc(Cl)s2)cs1 | 44 | > 100 | –
36 | CCCCOC(=O)Cn1c(-c2ccccc2)nc2ccccc2c1=O | 7.75 | 18.5 | –
37 | Fc1cccc(-c2cc3nc(-c4ccccc4)cc(N4CCC5(CC4)OCCO5)n3n2)c1 | – | > 100 | –
38 | CC(C)OC(=O)c1cc(C(=O)c2cc(Cl)ccc2O)coc1=N | 28.2 | > 100 | –
39 | COc1ccc(Cl)cc1NC(=O)C(C)N1CCN(C/C=C/c2ccccc2)CC1 (stereo not drawn) | 12.3 | 13.3 | –
40 | Cc1cccc(Oc2ccc(N)cc2)c1 | – | > 100 | –
41 | Cn1c(COc2cccc3ccccc23)nnc1SCC(=O)OC1CCCCC1 | 2.3 | 6.77 | –
42 | Cc1oc2ccc(OC(=O)c3cccs3)cc2c1C(=O)OC(C)C | 2.84 | 21.3 | –

Row | SMILES | IC50 [µM] | IC90 [µM] | CC50 [µM]
43 | O=S(=O)(Nc1ccn(-c2ccccc2)n1)c1ccc(Br)cc1 | 30.1 | > 100 | –
44 | CCCc1cc(NCCCn2ccnc2)n2nc(C)c(-c3ccccc3)c2n1 | 6.28 | 9.38 | > 40
45 | Cc1[nH]n(-c2nc(-c3ccc(Cl)cc3)cs2)c(=O)c1N=Nc1ccc(O)cc1 | < 0.195 | 5.6 | 15.8
46 | CCOC(=O)COc1ccc(-c2nnc(-c3ccccc3)o2)cc1 | 0.409 | 3.76 | –
47 | Nc1ccc(-c2cc(-c3cccc(N)c3)nc(-c3ccccc3)n2)cc1 | – | – | > 40
48 | C=CCn1c(O)c(C(CC)=Nc2ccc3c(c2)CCC3)c(=O)[nH]c1=O | 17.8 | > 100 | –
49 | O=C(Nc1cccc(NC(=O)c2cccs2)c1)c1ccc([N+](=O)[O-])o1 | 7.97 | 14.3 | 13.8
50 | CCCOC(=O)CSc1nnc(-c2cc(OC)c(OC)c(OC)c2)o1 | 0.728 | 1.83 | –
51 | CCOC(=O)c1nc2sc3c(c2c(=O)[nH]1)CCC(C)C3 (stereo not drawn) | 10.4 | > 100 | –
52 | Cc1[nH]c2ccccc2c1C1=NNC(=Nc2ccc(F)cc2)SC1 | 13.3 | 49.8 | > 40
53 | Cc1nn(-c2ccccc2)c(C)c1C(=O)Nc1nnc(-c2ccco2)o1 | 13.5 | > 100 | 38.5
54 | O=C(NCCc1nc2ccccc2[nH]1)/C(=C/c1ccc2c(c1)OCO2)NC(=O)c1ccc(Cl)cc1Cl | 20.6 | 52.9 | –
55 | CC(Oc1ccc2oc3ccccc3c2c1)C(=O)NC12CC3CC(CC(C3)C1)C2 (stereo not drawn) | 44.7 | > 100 | –
56 | O=C(/C=C/c1cn(CC(O)CN2CCCCC2)c2ccccc12)c1ccccc1 (stereo not drawn) | 2.94 | 3.34 | 29.5
57 | Cc1ccc(C(=O)/C=C\Nc2ccc(C)c(C)c2)cc1 | – | > 100 | –
58 | Cc1nc(N2CCN(Cc3ccc(Cl)cc3)CC2)c2oc3ccccc3c2n1 | 15.7 | 19.8 | > 40
59 | Cc1cccc(C)c1OCC(=O)Nc1cccc(-c2nnc(-c3ccccc3)o2)c1 | 10.7 | > 100 | > 40
60 | O=C1C=CC(O)(c2cc(=O)c3c(O)cc(O)cc3o2)C=C1 | 3.87 | 6.68 | 6.81
61 | COc1ccc(Br)cc1C(C[N+](=O)[O-])c1c(N)n(C)c(=O)n(C)c1=O (stereo not drawn) | 8.08 | 12.5 | 9.3
62 | COc1ccc(O)c(C(=O)CC(=O)c2ccccc2C)c1 | 17.2 | > 100 | 17.1
63 | N#C/C(=C\c1c[nH]c2ccccc12)C(=O)Nc1ncc(Cc2ccc(Cl)cc2Cl)s1 | 11.7 | 13.5 | > 40

Row | SMILES | IC50 [µM] | IC90 [µM] | CC50 [µM]
64 | Cc1cc2oc3c(c(=O)c2cc1C)C(c1cccc(Br)c1)N(Cc1ccco1)C3=O (stereo not drawn) | 5.92 | > 100 | 13.9
65 | O=C(CSc1nc(-c2ccccc2Cl)ns1)c1ccc(Cl)cc1 | 8.62 | > 100 | –
66 | COc1ccc(-c2csc(-c3cccs3)n2)cc1OC | 11.3 | > 100 | –
67 | COC(=O)CSc1nc2c(c(-c3ccco3)c1C#N)CCCC2 | 3.08 | 3.39 | –
68 | O=C(NC1CCCCC1)C(c1ccc2ncccc2c1)N(Cc1ccccc1)C(=O)c1ccc2c(c1)OCCO2 (stereo not drawn) | 19 | 28.2 | –
69 | CCOC(=O)c1ccc(NC(=O)CN2C(=O)C(=O)N(CC(C)C)C2=O)cc1 | < 0.195 | > 100 | –
70 | O=C(NC1=NCCS1)c1ccc(-c2ccc(Cl)cc2)o1 | 28.4 | > 100 | –
71 | O=C1c2cccc3c([N+](=O)[O-])ccc(c23)C(=O)N1Cc1cccnc1 | 2.02 | 3.69 | 6.25
72 | CCN(CC(=O)NC(C)(C)C)C(=O)COc1c(Cl)cc(Cl)c2ccc(C)nc12 | 3.94 | 13.9 | 36.8
73 | COC(=O)c1cc(-c2ccc(OC)c(OC)c2)on1 | < 0.391 | > 100 | –
74 | COc1ccc(C(=O)Nc2cc(OC)c(NC(=O)c3ccco3)cc2OC)cc1 | 2.85 | 9.59 | –
75 | COc1c(F)c(F)c(C(=O)Nc2ccc(N3CCN(Cc4ccccc4)CC3)cc2)c(F)c1F | 35.9 | > 100 | 27.5
76 | C1=C(CCNc2ncnc3c2[nH]c2ccccc23)CCCC1 | 1.52 | 1.72 | 5.24
77 | COc1ccc(-c2oc3ncn(Cc4ccco4)c(=N)c3c2-c2ccc(OC)cc2)cc1 | 8.35 | 13.9 | 23.7
78 | CCc1ccc2c(c1)C1(C(=O)N2)N2CCCC2C(C(=O)c2ccc3ccccc3c2)C12C(=O)Nc1ccccc12 (stereo not drawn) | 2.97 | > 100 | 17.8
79 | COc1ccc(N=Cc2ccc[nH]2)cc1 | – | > 100 | –
80 | Cc1nc(C)c(/C(O)=C/c2nc3ccccc3oc2=O)s1 | < 0.195 | > 100 | –
81 | COC(=O)CSc1nnc(-c2ccc(NS(=O)(=O)c3ccccc3)cc2)o1 | 1.9 | 5.72 | –
